Results on 18 compounds are retold here after paper PMC9176744 (Science Advances, 2022).

Test [1] deals with T1, DHS1^WT (Arabidopsis thaliana, UniProt P29976). Kind of test: DHS enzyme assay. It counts as biochemical. The conditions noted are these: for inhibition of DHS1 activity: screening of AAA-derived metabolites as potential inhibitors (Fig. 2D); for IC50: recombinant DHS1^WT, varied effector concentrations.
Test [2] concerns the target T2, DHS2^WT (Arabidopsis thaliana, UniProt Q00218). Kind of test: DHS enzyme assay. Type of test: biochemical. As to conditions: for inhibition of DHS2 activity: screening of AAAs and AAA-derived metabolites as potential inhibitors (Fig. 2D); for IC50: recombinant DHS2^WT, varied effector concentrations; for inhibition at 1000 µM: read-out: inhibition of DHS2.
Test [3] relates to Arabidopsis plants (Col-0, sotaB4, sotaA4). Kind of test: Plant growth on media containing the effector.
For test [4], the target named is T2, DHS2^WT. The conditions noted are these: shown previously; cited from earlier work.
Another test concerns DHS2^A4. Kind of test: DHS enzyme assay, DHS2 with the sotaA4 mutation. As to conditions: for inhibition of DHS2^A4 activity: concentration of up to 1 mM; for inhibition of DHS2^A4: similar IC50 values to DHS2^WT.
The next test has as its system DHS2^F1. Kind of test: DHS enzyme assay, DHS2 with the sotaF1 mutation. As to conditions: concentration of up to 1 mM.
The subject of another test is DHS2^A11. Kind of test: DHS enzyme assay, DHS2 with the sotaA11 mutation. As to conditions: for inhibition of DHS2^A11 activity: concentration of up to 1 mM; for change in IC50 versus corresponding WT enzyme: DHS2^A11, the weakest sota allele.
Another test relates to DHS1^B4. Put plainly: DHS enzyme assay, DHS1 with the sotaB4 mutation. Type of test: biochemical, Arabidopsis thaliana. As to conditions: comparable IC50 values to DHS1^WT.
In test [5] the target is T1, DHS1^WT. As to conditions: shown previously; cited from earlier work.
Test [6] deals with DHS3 (DHS^WT isoform). As to conditions: shown previously; cited from earlier work.
In test [7] the test system is DHS3 (DHS^WT isoform). Kind of test: DHS enzyme assay. The conditions noted are these: for inhibition of DHS3 WT activity: all DHS^WT isoforms. Type of test: biochemical, Arabidopsis thaliana.
Test [8] concerns sota mutants (DHS enzymes). Put plainly: DHS enzyme assay, sota mutant enzymes compared with corresponding WT enzymes. Type of test: biochemical, Arabidopsis thaliana. As to conditions: nearly all of the sota mutants; maximum increase.
[9] abbreviates: ILA feeding, media with 0, 250, 500 or 1000 μM, 3-week-old plants, fresh weight.

T1 sequence (P29976 49-525): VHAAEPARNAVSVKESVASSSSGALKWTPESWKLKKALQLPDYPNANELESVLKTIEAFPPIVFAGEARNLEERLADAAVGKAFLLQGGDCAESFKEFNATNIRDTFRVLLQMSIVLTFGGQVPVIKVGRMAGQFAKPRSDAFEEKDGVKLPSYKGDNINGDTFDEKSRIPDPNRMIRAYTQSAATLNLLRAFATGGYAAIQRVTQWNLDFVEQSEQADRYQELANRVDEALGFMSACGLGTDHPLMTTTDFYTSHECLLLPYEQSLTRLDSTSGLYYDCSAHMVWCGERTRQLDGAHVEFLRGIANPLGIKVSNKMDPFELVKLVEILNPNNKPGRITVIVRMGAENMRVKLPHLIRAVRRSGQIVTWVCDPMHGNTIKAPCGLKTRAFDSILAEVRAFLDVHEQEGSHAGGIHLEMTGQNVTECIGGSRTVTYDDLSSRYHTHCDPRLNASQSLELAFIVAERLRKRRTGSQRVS
T2 sequence (Q00218 34-507): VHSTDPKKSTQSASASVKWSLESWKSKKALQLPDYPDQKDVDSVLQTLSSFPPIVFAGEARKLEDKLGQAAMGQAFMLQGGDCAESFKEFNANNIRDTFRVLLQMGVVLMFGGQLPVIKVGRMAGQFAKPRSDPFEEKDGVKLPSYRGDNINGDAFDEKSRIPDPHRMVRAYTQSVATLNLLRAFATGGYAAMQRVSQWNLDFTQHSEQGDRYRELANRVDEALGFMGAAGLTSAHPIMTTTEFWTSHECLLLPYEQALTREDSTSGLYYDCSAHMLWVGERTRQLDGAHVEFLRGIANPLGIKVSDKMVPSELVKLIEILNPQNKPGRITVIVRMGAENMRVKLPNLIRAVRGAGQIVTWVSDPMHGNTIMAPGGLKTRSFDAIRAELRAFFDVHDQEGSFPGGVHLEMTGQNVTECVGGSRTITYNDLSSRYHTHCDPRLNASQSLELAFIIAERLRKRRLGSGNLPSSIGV

In the case of `Nc1ccccc1C(=O)[O-].[Na+]` [Anthranilate], the “inhibition of DHS1 activity” value at DHS1^WT [1] is listed as “did not affect the activity”. Moreover, the “inhibition of DHS2 activity” value on DHS2^WT [2] was “slight reduction”.
In the case of `O=C(O)C(O)Cc1c[nH]c2ccccc12` (stereo not shown) [ILA, Indole-3-lactate], at DHS1^WT [1], the “inhibition of DHS1 activity” value is on record as “reduced the activity”. Further, the “inhibition of DHS2 activity” value on DHS2^WT [2] is recorded as “reduced the activity”. In test [3] (setting [9]), the “effect on growth of Col-0 WT plants” value was “growth inhibition” and the “growth inhibition in sotaB4 mutant plants versus Col-0” value is on record as “significantly weakened”.
For `O=C(O)Cc1ccc(O)cc1` [4-hydroxyphenylacetate], the “inhibition of DHS1 activity” value at DHS1^WT [1] is “neither”.
For `N[C@@H](Cc1c[nH]c2ccccc12)C(=O)O` [Trp, tryptophan], the “inhibition of DHS2” value at DHS2^WT [4] was “inhibit”. The “inhibition of DHS2^A4 activity” value in the test with DHS2^A4 is recorded as “not inhibited”. Also, the “inhibition of DHS2^F1 activity” value in the test with DHS2^F1 is on record as “not inhibited”. For the same compound, the “inhibition of DHS2^A11 activity” value in the test with DHS2^A11 is “not inhibited”.
As for `O=C(O)C(=O)Cc1ccccc1` [PPY, phenylpyruvate], the “inhibition of DHS1 activity” value on DHS1^WT [1] is listed as “neither”.
For the compound `C=C(O[C@@H]1C=C(C(=O)O)C=C[C@H]1O)C(=O)O` [chorismate], in the test on DHS1^B4, the “inhibition of DHS1^B4” value is “still strongly inhibited”. The “inhibition of DHS1” value on DHS1^WT [5] is given as “strongly inhibit”. Besides, the “inhibition of DHS2” value at DHS2^WT [4] is on record as “strongly inhibit”. Moreover, in the test with DHS3 (DHS^WT isoform) [6], the “inhibition of DHS3” value was “strongly inhibit”. Besides, the “inhibition of DHS2^A4” value in the test on DHS2^A4 was “still inhibited”.
`O=C(O)C1=C[C@@H](O)[C@@H](O)[C@H](O)C1` [shikimate]: on DHS2^WT [4], the “inhibition of DHS2” value is listed as “slightly inhibit”. Further, in the test on DHS2^A4, the “inhibition of DHS2^A4” value is given as “still inhibited”.
For the compound `NCCc1c[nH]c2ccccc12` [tryptamine], the “inhibition of DHS1 activity” value on DHS1^WT [1] is recorded as “did not affect the activity”. In addition, the “inhibition of DHS2 activity” value on DHS2^WT [2] was “slight reduction”.
Take `c1ccc2[nH]ccc2c1` [indole]: the “inhibition of DHS1 activity” value at DHS1^WT [1] is reported as “did not affect the activity”.
For the compound `N[C@@H](CC1(C(=O)O)C=CC(O)C=C1)C(=O)O` (stereo partly shown) [arogenate], the “inhibition of DHS2” value on DHS2^WT [4] is “slightly inhibit”. For the same compound, the “inhibition of DHS2^A4” value with DHS2^A4 is given as “still inhibited”.
What is called IC50 is the point on the concentration scale where inhibition reaches its midpoint. Turning to `O=C(O)C(=O)Cc1c[nH]c2ccccc12` [IPA, indole-3-pyruvate], at DHS1^WT [1], the IC50 was found to be 241 µM and the “inhibition of DHS1 activity” value is recorded as “inhibit”. Further, at DHS2^WT [2], the IC50 came out at 58 µM and the “inhibition of DHS2 activity” value was “inhibit”. Also, in [3] (independent of genotypes, even at very low concentration (<10 μM)), the “effect on plant growth” value is “impaired plant growth”.
One may read the inhibition as the drop in the measured response relative to a control, in per cent. On to `NCCc1ccc(O)cc1` [tyramine], for which, at DHS2^WT [2], the inhibition at 1000 µM was ~30%.
In the case of `O=C(O)C(=O)Cc1ccc(O)cc1` [HPP, 4-Hydroxyphenylpyruvate], the “inhibition of DHS3 WT activity” value in the test on DHS3 (DHS^WT isoform) [7] is reported as “effectively inhibited”. Also, in test [8], the “increase in IC50 versus corresponding WT enzymes” value is reported as “up to 7 fold”. Also, in the test on DHS2^A11, the “change in IC50 versus corresponding WT enzyme” value is “no significant change”.
Turning to `O=C(O)/C=C/c1ccc(O)c(O)c1` [caffeate], the “inhibition of DHS1^B4” value in the test on DHS1^B4 is “still strongly inhibited”. The “inhibition of DHS1” value at DHS1^WT [5] was “strongly inhibit”. In addition, at DHS2^WT [4], the “inhibition of DHS2” value is listed as “strongly inhibit”. Also, the “inhibition of DHS3” value in the test on DHS3 (DHS^WT isoform) [6] is “strongly inhibit”. The “inhibition of DHS2^A4” value with DHS2^A4 is “still inhibited”.
For `O=C(O)Cc1cc(O)ccc1O` [HGA, homogentisate], the IC50 at DHS1^WT [1] lay in the range of 75 to 250 µM; at DHS2^WT [2], 75 to 250 µM; on DHS3 (DHS^WT isoform) [7] (recombinant DHS3 WT, varied effector concentrations), 75 to 250 µM. Moreover, on DHS1^WT [1], the “inhibition of DHS1 activity” value is reported as “effectively inhibited”. Besides, on DHS2^WT [2], the “inhibition of DHS2 activity” value is “effectively inhibited”. For the same compound, the “inhibition of DHS3 WT activity” value with DHS3 (DHS^WT isoform) [7] was “effectively inhibited”. For the same compound, the “increase in IC50 versus corresponding WT enzymes” value in test [8] is on record as ≤ 12 fold. In addition, in the test with DHS2^A11, the “change in IC50 versus corresponding WT enzyme” value is recorded as “no significant change”.
`O=C(O)C(=O)CC1(C(=O)O)C=CC(O)C=C1` (stereo not shown) [prephenate]: the “inhibition of DHS2” value on DHS2^WT [4] was “slightly inhibit”. The “inhibition of DHS2^A4” value in the test on DHS2^A4 is on record as “still inhibited”.
Turning to `N[C@@H](Cc1ccc(O)cc1)C(=O)O` [Tyr, L-tyrosine], in the test on DHS2^A4, the “inhibition of DHS2^A4 activity” value was “not inhibited”. Moreover, the “inhibition of DHS2^F1 activity” value with DHS2^F1 is listed as “not inhibited”. For the same compound, the “inhibition of DHS2^A11 activity” value in the test with DHS2^A11 is on record as “not inhibited”.
For `OCCc1ccc(O)cc1` [Tyrosol], the inhibition at 1000 µM at DHS2^WT [2] is ~30%.
